The text below walks through data of article PMC6273138, “Inhibitory Effects of Aschantin on Cytochrome P450 and Uridine 5′-diphospho-glucuronosyltransferase Enzyme Activities in Human Liver Microsomes” (Molecules, 2016).

Read-outs that look alike come from different tables or passages of the source.

One data set concerns the target CYP3A4 (Homo sapiens, UniProt P08684). Description: CYP3A4-catalyzed midazolam 1′-hydroxylase inhibition in pooled human liver microsomes. The conditions noted are these: for IC50: CYP3A4 midazolam 1′-hydroxylase, 2.5 µM midazolam. (In general: Microsomes from liver hold many membrane-bound enzymes, among them those of drug oxidation.)
The next data set has as its target T1, CYP1A2 (Homo sapiens, UniProt P05177).
T1 sequence (P05177 1-516): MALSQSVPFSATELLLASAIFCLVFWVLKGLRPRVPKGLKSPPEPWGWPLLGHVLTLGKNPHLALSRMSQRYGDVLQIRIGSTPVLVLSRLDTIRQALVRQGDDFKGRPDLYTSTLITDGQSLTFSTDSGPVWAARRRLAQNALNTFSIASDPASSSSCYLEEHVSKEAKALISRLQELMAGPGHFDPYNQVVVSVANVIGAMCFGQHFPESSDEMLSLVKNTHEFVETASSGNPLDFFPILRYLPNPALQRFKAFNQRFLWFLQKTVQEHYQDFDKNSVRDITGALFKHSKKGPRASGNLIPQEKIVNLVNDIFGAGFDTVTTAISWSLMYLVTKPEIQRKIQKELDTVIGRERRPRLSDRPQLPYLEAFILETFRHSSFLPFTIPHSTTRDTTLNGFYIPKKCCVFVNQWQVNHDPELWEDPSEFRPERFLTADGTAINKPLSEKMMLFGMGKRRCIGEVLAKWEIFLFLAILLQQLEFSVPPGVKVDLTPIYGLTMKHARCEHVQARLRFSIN
The data set is described as follows: CYP1A2-catalyzed phenacetin O-de-ethylase inhibition in pooled human liver microsomes.

The next data set addresses T2, CYP2C8 (Homo sapiens, UniProt P10632).
T2 sequence (P10632 1-490): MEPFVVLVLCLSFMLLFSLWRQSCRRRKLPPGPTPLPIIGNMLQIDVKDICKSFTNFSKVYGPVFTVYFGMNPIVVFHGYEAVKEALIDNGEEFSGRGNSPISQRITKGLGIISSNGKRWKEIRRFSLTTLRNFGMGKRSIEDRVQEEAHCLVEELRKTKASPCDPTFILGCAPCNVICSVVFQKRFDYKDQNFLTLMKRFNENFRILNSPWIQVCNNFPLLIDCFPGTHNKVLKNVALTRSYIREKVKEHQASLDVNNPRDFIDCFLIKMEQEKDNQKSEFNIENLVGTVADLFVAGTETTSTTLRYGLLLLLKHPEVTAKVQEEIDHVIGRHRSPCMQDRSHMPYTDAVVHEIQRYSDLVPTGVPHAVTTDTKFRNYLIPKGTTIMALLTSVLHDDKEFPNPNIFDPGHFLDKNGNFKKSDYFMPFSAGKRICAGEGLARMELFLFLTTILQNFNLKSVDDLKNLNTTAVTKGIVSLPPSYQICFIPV
The data set is described as follows: Mechanism-based (time- and concentration-dependent) inactivation of CYP2C8 in human liver microsomes. Type of data set: in vitro ADME. The conditions noted are these: CYP2C8-mediated amodiaquine N-de-ethylation. The protocol:
The microsomes (1 mg/mL) were pre-incubated with various concentrations of aschantin in 50 mM potassium phosphate buffer (pH 7.4) in the presence of NADPH. Aliquots (10 µL) of the incubated mixtures were withdrawn at 5, 10, 15, and 20 min after incubation commenced and added to other tubes containing the CYP substrates (2 µM amodiaquine for CYP2C8, 10 µM diclofenac for CYP2C9, 100 µM [S]-mephenytoin for CYP2C19, or 2 µM midazolam for CYP3A4), 1 mM NADPH, 50 mM potassium phosphate buffer (pH 7.4), and 10 mM MgCl2, in 90 µL reaction mixtures. […] Aliquots (5 µL) of the diluted supernatants were analyzed by LC-MS/MS, as described above.

Another data set concerns the target T3, UGT1A9 (Homo sapiens, UniProt O60656).
T3 construct: using pooled human liver microsomes incubated with the cocktail of UGT substrates; tissue Corning Life Sciences 452161; host or cells: pooled human liver microsomes
T3 sequence (O60656 26-530): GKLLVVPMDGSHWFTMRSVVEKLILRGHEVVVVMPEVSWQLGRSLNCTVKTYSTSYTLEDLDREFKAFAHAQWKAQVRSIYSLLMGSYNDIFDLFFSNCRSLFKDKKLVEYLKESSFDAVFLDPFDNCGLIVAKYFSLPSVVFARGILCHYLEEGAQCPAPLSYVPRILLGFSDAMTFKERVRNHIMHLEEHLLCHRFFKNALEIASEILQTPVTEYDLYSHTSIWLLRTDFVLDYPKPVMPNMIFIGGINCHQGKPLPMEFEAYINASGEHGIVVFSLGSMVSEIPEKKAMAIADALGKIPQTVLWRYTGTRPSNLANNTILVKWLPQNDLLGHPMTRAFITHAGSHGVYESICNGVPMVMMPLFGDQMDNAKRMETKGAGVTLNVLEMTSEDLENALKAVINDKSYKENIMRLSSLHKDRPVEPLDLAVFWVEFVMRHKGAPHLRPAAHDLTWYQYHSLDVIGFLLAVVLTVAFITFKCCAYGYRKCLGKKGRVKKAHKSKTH
Description: UGT1A9-catalyzed mycophenolic acid glucuronidation inhibition in pooled human liver microsomes. Type of data set: in vitro ADME. The settings on record: 0.2 µM mycophenolic acid. On the procedure: The extents of aschantin on UGT1A1, UGT1A3, UGT1A4, UGT1A6, UGT1A9, and UGT2B7 were evaluated by LC-MS/MS, using pooled human liver microsomes incubated with the cocktail of UGT substrates. The method was modified from that of Joo et al..
The metabolites formed from the six UGT cocktail substrates were simultaneously measured using the LC-MS/MS method. […] The mass spectrometer was equipped with an ESI source and was operated in both positive and negative ion modes. […] Each metabolite was quantified via SRM in the negative ion (chenodeoxycholic acid 24-acyl-β-glucuronide, 567.2 > 391.0; mycophenolic acid glucuronide, 495.2 > 318.9; propofol glucuronide, 353.3 > 177.1) and positive ion (SN-38 glucuronide, 569.0 > 393.0; trifluoperazine glucuronide, 584.2 > 408.1; N-acetylserotonin-β-D-glucuronide, 395.2 > 219.0; naloxone 3-β-D-glucuronide, 504.0 > 310.0; meloxicam, 352.0 > 115.1) modes.

Chain of CYP3A4 (P08684 2-503): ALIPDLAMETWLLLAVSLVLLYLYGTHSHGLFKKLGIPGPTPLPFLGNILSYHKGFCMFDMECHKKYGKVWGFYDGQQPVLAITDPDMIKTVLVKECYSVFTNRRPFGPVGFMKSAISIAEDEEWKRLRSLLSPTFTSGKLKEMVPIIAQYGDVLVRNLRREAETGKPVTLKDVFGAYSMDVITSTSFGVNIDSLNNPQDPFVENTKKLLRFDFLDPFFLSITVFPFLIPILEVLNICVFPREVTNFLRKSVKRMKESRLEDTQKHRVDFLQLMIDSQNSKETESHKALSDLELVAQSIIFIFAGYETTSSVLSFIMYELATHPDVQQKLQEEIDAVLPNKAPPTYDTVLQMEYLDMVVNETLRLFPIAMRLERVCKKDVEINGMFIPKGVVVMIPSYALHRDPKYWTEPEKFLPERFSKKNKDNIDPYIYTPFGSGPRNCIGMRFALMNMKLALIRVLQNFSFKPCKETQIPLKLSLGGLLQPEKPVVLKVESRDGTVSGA
Description for CYP1A2: (§1) The degrees of inhibition (the IC50 values) of aschantin toward CYP1A2, CYP2A6, CYP2C8, CYP2C9, CYP2C19, CYP2D6, and CYP3A4 were evaluated using pooled human liver microsomes employing a cocktail of CYP substrates and liquid chromatography-tandem mass spectrometry (LC-MS/MS). […] After 3 min pre-incubation at 37 °C, the reactions were initiated by addition of NADPH and incubation proceeded for 15 min at 37 °C in a shaking water bath. The reaction was stopped by placing the tubes on ice and adding 100 µL amounts of ice-cold methanol containing internal standards (^13C2,^15N-acetaminophen for acetaminophen and N-desethylamodiaquine; d9-1′-hydroxybufuralol for 4′-hydroxydiclofenac; and 7-hydroxycoumarin, 4′-hydroxy-mephenytoin, 1′-hydroxybufuralol, and 1′-hydroxymidazolam). Then the incubation mixtures were centrifuged at 13,000× g for 4 min at 4 °C. All assays were performed in triplicate and the average values were used in calculations.
(§2) To this end, we employed a tandem mass spectrometer (TSQ Quantum Access, Thermo Scientific, San Jose, CA, USA) coupled to a Nanospace SI-2 LC system (Shiseido, Tokyo, Japan). The column and autosampler temperatures were 50 °C and 6 °C, respectively. The mass spectrometer was equipped with an electrospray ionization (ESI) source and was operated in positive ion mode. The ESI source settings for metabolite ionization were as follows: capillary voltage, 4200 V; vaporizer temperature, 350 °C; capillary temperature 330 °C; sheath gas pressure, 35 psi; and auxiliary gas pressure, 15 psi. […] Analytical data were processed using Xcalibur® software (Thermo Scientific).
The apparent kinetic inhibitory potentials (the Ki values) were estimated from the fitted curves using Enzyme Kinetics version 1.1 (Systat Software Inc.).
Description for CYP3A4: as §1, §2

Turning to `COc1cc([C@H]2OC[C@H]3[C@@H]2CO[C@@H]3c2ccc3c(c2)OCO3)cc(OC)c1OC` [Aschantin], the IC50 was 57.5 µM against CYP3A4 (IC50 No Pre-incubation, pooled human liver microsomes, no pre-incubation); 14.4 µM against CYP3A4 (IC50 With Pre-incubation, 30 min pre-incubation with microsomes and NADPH); greater than 100 µM at CYP1A2; greater than 100 µM on CYP1A2 (read-out: IC50 With Pre-incubation, CYP1A2 phenacetin O-de-ethylase, 50 µM phenacetin, 30 min pre-incubation with microsomes and NADPH); 71 µM against UGT1A9. For the same molecule, the IC50 shift at 0.5 h on CYP3A4 (human, pooled human liver microsomes, pH 7.4, probe midazolam (2.5 µM), 1′-hydroxylation) is greater than 2.5. Further, at CYP1A2 (aschantin at 100 µM, human liver microsomes), the “inhibition of CYP1A2-mediated phenacetin O-de-ethylation” value was “negligibly inhibited”. Moreover, the Ki on CYP2C8 (read-out: Ki (apparent)) amounted to 10.2 µM. For the same molecule, the kinact on CYP2C8 (pH 7.4, probe amodiaquine (2 µM)) is 0.000933 s⁻¹.

Broadly, the IC50 is the concentration that gives 50% inhibition. By kinact is commonly meant the maximal first-order rate at which the target is inactivated.
